Measured values from paper PMC10613275 (Scientific Reports, 2023).
“Also recorded” adds a separate entry of the source. Where two headings read alike, the source gives them in different places.

How the values were obtained:
dogs = details: dog, in vivo; cited from earlier work
Caco-2 cells [1] = assay: Intestinal absorption, Caco-2 intestinal barrier model in vitro; format: in vitro ADME, human; details: lilial 1 mM, 4 h
[2] = as above; format: in vitro ADME, human; details: human
RPTEC/TERT1 cells = assay: Nephrotoxicity, RT-qPCR of kidney damage biomarkers; format: cell-based, human; details: up to 100 µM
Method: RPTEC/TERT1 cells were seeded at a concentration of 2 × 10^5 cells/ml in ProxUp2 medium into 60 mm Petri dishes. After 24 h, the cells were washed with PBS and […] metabolites (100 μM) were applied in fresh ProxUp2 medium. The cells were incubated with samples for 48 h, after which the cells were washed with PBS and dishes were frozen in - 160 °C. The RNA was isolated using RNeasy Plus Mini Kit (Qiagen, Hilden, Germany). The RNA concentration and purity was determined with NanoDrop One (ThermoFisher Scientific) spectrophotometr. The cDNA synthesis was performed from 0.1 μg of total RNA with an iScript Reverse Transcription Supermix (Bio-Rad, Hercules, California, USA). Quantitative real-time PCR (qPCR) was performed using the qPCR Bio-Rad C100 Touch System (Bio-Rad) with a 96-well block. The reaction mixture consisted of 1 μl of specific 20 × PrimePCR Assay (Bio-Rad), 10 μl of 2 × SsoAdvance Universal Supermix (Bio-Rad), 2 μl of cDNA sample, 7 μl of nuclease-free water. The final reaction volume was 20 μl. […] Cycling parameters were: initial denaturation at 95 °C for 2 min, followed by 40 cycles of 95 °C for 5 s and 60 °C for 30 s. Fluorescence values were acquired after each extension phase. Samples were analyzed in triplicate, and samples with a standard deviation of duplicates > 0.2 Ct were re-analyzed. A non-template control containing nuclease-free water instead of cDNA as well as non-RT control containing purified RNA without reverse transcription was used. The real-time PCR study followed the MIQE guidelines. Relative transcript levels of the estimated genes in the cell lines were compared using the software CFX Maestro Software 2.3 (Bio-Rad).

[3] = design: method as in earlier work; details: rat, 1% p-BMHCA in ethanol, 120 µg substance/cm^2, 16 h ref 4; cited from earlier work
rats [4] = details: rat, in vivo; cited from earlier work
[5] = design: method as in PMID 24239523; details: concentrations up to 500 μM ref 5; cited from earlier work
[6] = system: fertilized eggs of white turkey (Meleagris gallopavo); details: 10 mg/egg ref 6; cited from earlier work
HepG2 cells = details: HepG2, 100 µM ref 2; cited from earlier work
[7] = Metabolic activation with rat liver S9, GC/HRMS; format: in vitro ADME; details: 37 °C, 1 h; to lysmerylic acid and p-tert-butylbenzoic acid as major metabolites
From the text: Metabolic activation was verified using GC/HRMS as described above.

[8] = design: method as in earlier work; details: human volunteers, cited from earlier work
rats [9] = system: rats; design: method as in PMID 32461162; details: parental rats F0 and F1 in vivo ref 3; cited from earlier work
[10] = system: ARE-Nrf2 luciferase (KeratinoSens); design: method as in PMID 23576290; details: cited from earlier work
[11] = design: method as in earlier work; details: guinea pigs, 1% p-BMHCA in ethanol, 120 µg substance/cm^2, 16 h ref 4; cited from earlier work
Hek293 cells = details: Hek293 ref 2; cited from earlier work
Salmonella strains = details: up to 5000 µg/plate with or without metabolic activation ref 4; cited from earlier work
HeLa cells = assay: γH2AX biomarker-based genotoxicity assay, HeLa; format: cell-based, human; details: for MoA (mean fluorescence values over area of the nuclei): PC 30 μM
Method: Briefly, HeLa and CHO-K1 cells were seeded at a concentration of 1 × 10^5 cells/ml into the 96-well plates. CHO-K1 cells were used for comparison with HPRT test. HeLa cells were recommended by the manufacturer of the kit. After 24 h, cells were rinsed with PBS and cultivation medium (“Cell lines” Section) without ATB, with a reduced content of FBS (5%) was added. 30 µM valinomycin (in DMSO) was used as a positive control Samples were applied in the presence of non-toxic sample concentrations, i.e. 100 µM either with or without S9 mix. […] Cells were photographed using a fluorescence microscope (Olympus IX83); filters: DAPI (500 ms) and Cy3 (500 ms). Bioimage analysis in ImageJ software was performed as described previously.

CHO-K1 cells = assay: Cytotoxicity, cell viability (resazurin assay), CHO-K1, with or without S9 mix; details: 1 day
androgen receptor = assay: Androgenic activity, transactivation luciferase assay in MDA-kb2; details: 1 nm–100 µM, MDA-kb2
From the text: Results were expressed as fold induction (FI), i.e. fold increase compared to vehicle control. According to EPA[28], FI of positive control should be above 4 to meet the performance standard.

Caco-2 cells [12] = details: Caco-2, 100 µM ref 2; cited from earlier work
HaCaT cells = details: 10 µM ref 2; cited from earlier work
CHO-K1 cells (hprt gene) = assay: CHO/HPRT mutation assay; format: cell-based, Chinese hamster; details: lilial 500 µM, 3MC 2 µg/ml

Structure (SMILES): CC(C=O)Cc1ccc(C(C)(C)C)cc1 (stereo not shown) [Lilial, 3-(4-(tert-butyl)phenyl)-2-methylpropanal]
- Oral dose that reduced body weight, gave clinical and systemic toxicity (dogs): ≥ 200 mg/kg/day
- Lilial (%) in Caco-2 cells (Caco-2 cells [1]): 13.1 ± 5.2%
- Lilial (%) in apical medium (Caco-2 cells [1]): 32.3 ± 2.0%
- Lilial (%) in basolateral medium (Caco-2 cells [1]): 34.1 ± 3.4%
- Recovery (Caco-2 cells [1]; all compartments): 79.5%
- recovery at 4 h, 1 mM ([2]; Caco-2, lilial 1 mM, 4 h, all compartments): ~80%
- Papp at 4 h, 1 mM ([2]; Caco-2, read-out: Papp (apparent permeability coefficient)): 21 ×10⁻⁶ cm/s
- Nephrotoxicity result (RPTEC/TERT1 cells): Non nephrotoxic
- Nephrotoxicity result (RPTEC/TERT1 cells; listed as lilial): not toxic; also recorded: neither lilial, nor its metabolites, demonstrated nephrotoxic activity
- In vitro dermal absorption [3]: 78.4%
- Oral dose that reduced body weight, gave clinical and systemic toxicity (rats [4]): ≥ 50 mg/kg/day
- Genotoxicity at the chromosomal level (clastogenicity or aneuploidy) or single-strand breaks [5]: did not induce genotoxicity
- DNA strand breaks in the comet assay [6]: 2.0 fold
- Decrease in cell viability (HepG2 cells): 23%
- Metabolism in presence of Arochlor-induced rat liver S9 fractions [7]: almost completely metabolised
- Mean of applied dose detected in urine ([8]; dermal 6 h, urine within 24 h ref 4): 1.4%
- Topical application recovery ([8]; dermal 6 h ref 4): 71 ± 10%
- Effects on fertility and reproductive performance (rats [9]): no adverse effects
- KeratinoSens assay result [10]: negative
- In vitro dermal absorption [11]: 25.7%
- Effect on cell viability (Hek293 cells): no negative effect
- Mutagenic activity, Ames test (Salmonella strains): increased number of revertant colonies were detected only for the Salmonella strain TA1535, but it was not reproducible
- Genotoxicity result (HeLa cells; 100 µM): Non genotoxic
- MoA (mean fluorescence values over area of the nuclei) (HeLa cells; 4h_S9, lilial 100 µM): 0.20
- MoA (mean fluorescence values over area of the nuclei) (HeLa cells; 4 h, without S9, lilial 100 µM): 0.11
- MoA (mean fluorescence values over area of the nuclei) (HeLa cells; 24 h, lilial 100 µM): 0.03
- Toxic concentration (CHO-K1 cells; 5 nm–500 µM, without S9): ≥ 250 µM
- Cytotoxicity result after metabolization by the S9 mix (CHO-K1 cells; up to 500 µM, with S9 mix): no cytotoxicity
- Androgenic activity (agonist) result (androgen receptor): Non active up to 100 µM
- Androgenic activity (agonist) result (androgen receptor; listed as lilial): no activity was detected
- Decrease in cell viability (Caco-2 cells [12]): 23%
- Decrease in cell viability (HaCaT cells): 65%
- MF (/106) mutation frequency (CHO-K1 cells (hprt gene); Table 4, With S9): 6 ± 5 /106
- NMC (number of mutant colonies) (CHO-K1 cells (hprt gene); Table 4, Without S9): 0
